Assay results from ChEMBL document CHEMBL1201862, “PubChem BioAssay data set” (2004).
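48-hour exposure; five concentrations; linearly interpolated endpoints. The concentration for 50% growth inhibition is given as GI50.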 The source made the active and inactive calls. Rule as the data show it: active = GI50 up to about 1.1 µM and inactive = higher.

How the values were obtained:
Assay in all cases: NCI anticancer screen, dose series, 48 h
SK-MEL-2 = test system: SK-MEL-2
NCI-H522 = test system: NCI-H522
CCRF-CEM = test system: CCRF-CEM
M14 = test system: M14
UACC-62 = test system: UACC-62
TK-10 = test system: TK-10
CAKI-1 = test system: CAKI-1
786-0 = test system: 786-0
MDA-MB-231 = test system: MDA-MB-231
Hs-578T = test system: Hs-578T
MCF7 = test system: MCF7
DU-145 = test system: DU-145
MDA-N = test system: MDA-N
HOP-62 = test system: HOP-62
HOP-92 = test system: HOP-92
T47D = test system: T47D
OVCAR-4 = test system: OVCAR-4
HCT-15 = test system: HCT-15
U-251 = test system: U-251
RPMI-8226 = test system: RPMI-8226
COLO 205 = test system: COLO 205
UO-31 = test system: UO-31
SW-620 = test system: SW-620
NCI-H460 = test system: NCI-H460
HCT-116 = test system: HCT-116
SNB-19 = test system: SNB-19
SF-268 = test system: SF-268
BT-549 = test system: BT-549
SK-MEL-5 = test system: SK-MEL-5
NCI/ADR-RES = test system: NCI/ADR-RES
PC-3 = test system: PC-3
LOX IMVI = test system: LOX IMVI
IGROV-1 = test system: IGROV-1
OVCAR-3 = test system: OVCAR-3
K562 = test system: K562
KM12 = test system: KM12
SF-295 = test system: SF-295
SK-OV-3 = test system: SK-OV-3
SR = test system: SR
UACC-257 = test system: UACC-257
SN12C = test system: SN12C
HT-29 = test system: HT-29
NCI-H226 = test system: NCI-H226
HL-60 = test system: HL-60
MOLT-4 = test system: MOLT-4
A549 = test system: A549
SK-MEL-28 = test system: SK-MEL-28
SNB-75 = test system: SNB-75
EKVX = test system: EKVX
SF-539 = test system: SF-539
ACHN = test system: ACHN
RXF 393 = test system: RXF 393
NCI-H23 = test system: NCI-H23
OVCAR-5 = test system: OVCAR-5
MDA-MB-435 = test system: MDA-MB-435
OVCAR-8 = test system: OVCAR-8
HCC 2998 = test system: HCC 2998
A498 = test system: A498
Malme-3M = test system: Malme-3M

CC(=O)Oc1c(OC(C)C)c(C)c(O[Si](C(C)C)(C(C)C)C(C)C)c2[nH]c3ccccc3c12 was tested, and the GI50 (SK-MEL-2) was > 100 µM (inactive), the GI50 (NCI-H522) was 34.6 µM (inactive) and the GI50 (CCRF-CEM) was 60.1 µM (inactive). For the same compound, the GI50 (M14) was > 94.6 µM (inactive), the GI50 (UACC-62) was > 100 µM (inactive) and the GI50 (TK-10) was > 100 µM (inactive). For the same compound, the GI50 (CAKI-1) was 67.1 µM (inactive), the GI50 (786-0) was > 100 µM (inactive) and the GI50 (MDA-MB-231) was > 88.3 µM (inactive). The GI50 (Hs-578T) was > 100 µM (inactive), the GI50 (MCF7) was 56.6 µM (inactive) and the GI50 (DU-145) was > 100 µM (inactive). The GI50 (MDA-N) was > 100 µM (inactive), the GI50 (HOP-62) was > 100 µM (inactive) and the GI50 (HOP-92) was > 100 µM (inactive). The GI50 (T47D) was 44.4 µM (inactive), the GI50 (OVCAR-4) was 57.8 µM (inactive) and the GI50 (HCT-15) was > 75.7 µM. The GI50 (U-251) was 99.5 µM (inactive), the GI50 (RPMI-8226) was 71.1 µM (inactive) and the GI50 (COLO 205) was > 100 µM (inactive). The GI50 (UO-31) was > 100 µM (inactive), the GI50 (SW-620) was > 83.4 µM (inactive) and the GI50 (NCI-H460) was > 100 µM (inactive). For the same compound, the GI50 (HCT-116) was 63.4 µM (inactive), the GI50 (SNB-19) was > 100 µM (inactive) and the GI50 (SF-268) was > 100 µM (inactive). The GI50 (BT-549) was > 100 µM (inactive), the GI50 (SK-MEL-5) was > 100 µM (inactive) and the GI50 (NCI/ADR-RES) was > 100 µM (inactive). The GI50 (PC-3) was 37.7 µM (inactive), the GI50 (LOX IMVI) was > 100 µM (inactive) and the GI50 (IGROV-1) was > 100 µM (inactive). For the same compound, the GI50 (OVCAR-3) was > 100 µM (inactive), the GI50 (K562) was > 100 µM (inactive) and the GI50 (KM12) was 67.3 µM (inactive). The GI50 (SF-295) was 76.2 µM (inactive), the GI50 (SK-OV-3) was > 100 µM (inactive) and the GI50 (SR) was 25.5 µM (inactive). For the same compound, the GI50 (UACC-257) was > 62.4 µM (inactive), the GI50 (SN12C) was > 69 µM (inactive) and the GI50 (HT-29) was 38.5 µM (inactive). The GI50 (NCI-H226) was > 100 µM (inactive), the GI50 (HL-60) was 2.62 µM (inactive) and the GI50 (MOLT-4) was 12 µM (inactive). The GI50 (A549) was > 82.2 µM (inactive), the GI50 (SK-MEL-28) was > 100 µM (inactive) and the GI50 (SNB-75) was > 100 µM (inactive). The GI50 (EKVX) was > 45 µM (inactive), the GI50 (SF-539) was > 100 µM (inactive) and the GI50 (ACHN) was > 100 µM (inactive). For the same compound, the GI50 (RXF 393) was 20.2 µM (inactive), the GI50 (NCI-H23) was 33.6 µM (inactive) and the GI50 (OVCAR-5) was > 100 µM (inactive). For the same compound, the GI50 (MDA-MB-435) was > 42.2 µM (inactive) and the GI50 (OVCAR-8) was > 100 µM (inactive).

In the case of CN(C)CC(O)c1ccc(Cl)c2ccccc12 (centres undefined), the GI50 (SK-MEL-2) is reported as 19.3 µM (inactive), the GI50 (NCI-H522) is reported as 33.2 µM (inactive) and the GI50 (CCRF-CEM) is reported as 20 µM (inactive). The GI50 (M14) was 16.7 µM (inactive), the GI50 (UACC-62) was 17.5 µM (inactive) and the GI50 (TK-10) was 34.3 µM (inactive). The GI50 (CAKI-1) was 25.6 µM (inactive), the GI50 (786-0) was 48.3 µM (inactive) and the GI50 (MDA-MB-231) was 27.5 µM (inactive). The GI50 (Hs-578T) was 38.2 µM (inactive), the GI50 (MCF7) was 32.7 µM (inactive) and the GI50 (DU-145) was > 96.8 µM (inactive). For the same compound, the GI50 (MDA-N) was 24.8 µM (inactive), the GI50 (HCC 2998) was 15.8 µM (inactive) and the GI50 (HOP-62) was 50.8 µM (inactive). For the same compound, the GI50 (HOP-92) was 14.2 µM (inactive), the GI50 (T47D) was 21 µM (inactive) and the GI50 (OVCAR-4) was 63.4 µM (inactive). The GI50 (HCT-15) was > 90.2 µM, the GI50 (U-251) was 37.1 µM (inactive) and the GI50 (RPMI-8226) was 3.08 µM (inactive). The GI50 (COLO 205) was 20.6 µM (inactive), the GI50 (UO-31) was 19.9 µM (inactive) and the GI50 (SW-620) was > 83.9 µM (inactive). The GI50 (NCI-H460) was 31.2 µM (inactive), the GI50 (HCT-116) was 50 µM (inactive) and the GI50 (SNB-19) was > 70 µM (inactive). The GI50 (SF-268) was 55.6 µM (inactive), the GI50 (BT-549) was 57.1 µM (inactive) and the GI50 (SK-MEL-5) was 16.6 µM (inactive). For the same compound, the GI50 (NCI/ADR-RES) was 81.5 µM (inactive), the GI50 (PC-3) was 36.9 µM (inactive) and the GI50 (LOX IMVI) was 22.3 µM (inactive). The GI50 (IGROV-1) was 39.5 µM (inactive), the GI50 (OVCAR-3) was > 91 µM (inactive) and the GI50 (K562) was 1.15 µM (inactive). For the same compound, the GI50 (KM12) was 50.4 µM (inactive), the GI50 (SF-295) was 24.3 µM (inactive) and the GI50 (SK-OV-3) was 74 µM (inactive). The GI50 (UACC-257) was 20.9 µM (inactive), the GI50 (SN12C) was 43.3 µM (inactive) and the GI50 (HT-29) was 50 µM (inactive). For the same compound, the GI50 (NCI-H226) was > 27.3 µM (inactive), the GI50 (HL-60) was 9.12 µM (inactive) and the GI50 (MOLT-4) was 23.2 µM (inactive). For the same compound, the GI50 (A498) was 22.4 µM (inactive), the GI50 (A549) was > 77.6 µM (inactive) and the GI50 (SK-MEL-28) was 19.6 µM (inactive). For the same compound, the GI50 (Malme-3M) was 32.3 µM (inactive), the GI50 (SNB-75) was 17.4 µM (inactive) and the GI50 (EKVX) was > 100 µM (inactive). For the same compound, the GI50 (SF-539) was 50.1 µM (inactive), the GI50 (ACHN) was 45 µM (inactive) and the GI50 (RXF 393) was 22.1 µM (inactive). The GI50 (NCI-H23) was > 87.1 µM (inactive), the GI50 (OVCAR-5) was > 100 µM (inactive) and the GI50 (MDA-MB-435) was 21.6 µM (inactive). The GI50 (OVCAR-8) was > 90.4 µM (inactive).

With NC(=O)CNC(=O)[C@@H]1CC(OCCC(=O)O)CN1C(=O)C1CCCN1C(=O)OCc1ccccc1 (some centres undefined) the GI50 (SK-MEL-2) was > 100 µM (inactive), the GI50 (NCI-H522) was > 100 µM (inactive) and the GI50 (CCRF-CEM) was > 100 µM (inactive). The GI50 (M14) was > 100 µM (inactive), the GI50 (UACC-62) was > 100 µM (inactive) and the GI50 (TK-10) was > 100 µM (inactive). The GI50 (786-0) was > 100 µM (inactive), the GI50 (MDA-MB-231) was > 100 µM (inactive) and the GI50 (Hs-578T) was > 100 µM (inactive). For the same compound, the GI50 (MCF7) was > 100 µM (inactive), the GI50 (DU-145) was > 100 µM (inactive) and the GI50 (MDA-N) was > 100 µM (inactive). For the same compound, the GI50 (HOP-62) was > 100 µM (inactive), the GI50 (T47D) was > 100 µM (inactive) and the GI50 (OVCAR-4) was > 100 µM (inactive). For the same compound, the GI50 (HCT-15) was > 100 µM, the GI50 (U-251) was > 100 µM (inactive) and the GI50 (RPMI-8226) was > 100 µM (inactive). For the same compound, the GI50 (COLO 205) was > 100 µM (inactive), the GI50 (UO-31) was > 100 µM (inactive) and the GI50 (SW-620) was > 100 µM (inactive). For the same compound, the GI50 (NCI-H460) was > 100 µM (inactive), the GI50 (HCT-116) was > 100 µM (inactive) and the GI50 (SNB-19) was > 100 µM (inactive). For the same compound, the GI50 (SF-268) was 49.2 µM (inactive), the GI50 (BT-549) was > 100 µM (inactive) and the GI50 (SK-MEL-5) was > 100 µM (inactive). For the same compound, the GI50 (NCI/ADR-RES) was > 100 µM (inactive), the GI50 (PC-3) was > 100 µM (inactive) and the GI50 (LOX IMVI) was > 100 µM (inactive). The GI50 (IGROV-1) was > 100 µM (inactive), the GI50 (OVCAR-3) was > 100 µM (inactive) and the GI50 (K562) was > 100 µM (inactive). For the same compound, the GI50 (KM12) was > 100 µM (inactive), the GI50 (SF-295) was > 100 µM (inactive) and the GI50 (SK-OV-3) was > 100 µM (inactive). For the same compound, the GI50 (SR) was > 100 µM (inactive), the GI50 (UACC-257) was > 100 µM (inactive) and the GI50 (SN12C) was > 100 µM (inactive). The GI50 (HT-29) was > 100 µM (inactive), the GI50 (NCI-H226) was > 100 µM (inactive) and the GI50 (HL-60) was > 100 µM (inactive). The GI50 (MOLT-4) was > 100 µM (inactive), the GI50 (A498) was > 100 µM (inactive) and the GI50 (A549) was > 100 µM (inactive). For the same compound, the GI50 (SK-MEL-28) was > 100 µM (inactive), the GI50 (Malme-3M) was > 100 µM (inactive) and the GI50 (SNB-75) was > 100 µM (inactive). The GI50 (EKVX) was 2.74 µM (inactive), the GI50 (ACHN) was > 100 µM (inactive) and the GI50 (RXF 393) was > 100 µM (inactive). For the same compound, the GI50 (NCI-H23) was > 100 µM (inactive), the GI50 (OVCAR-5) was > 100 µM (inactive) and the GI50 (MDA-MB-435) was > 100 µM (inactive). For the same compound, the GI50 (OVCAR-8) was > 100 µM (inactive).
